Experimental data taken from patent publication US10023615B2, “Efficient transport into white blood cells” (priority 2008, dated 2018).
Square brackets hold non-standard residues; d marks the D form. Ends that are not written are not given here.

Tests used:
U937 cells = experiment: Intracellular concentration of transporter constructs subsequent to uptake into U937 cells; format: cell-based; details: for intracellular concentration of transporter construct subsequent to uptake: U937 cells, 10 μM construct
Protocol: 9. Determination of Intracellular Concentration of Specific Transporter Constructs Subsequent to Uptake (Internalization) of these Peptides into U937 Cells • According to a further experiment, the concentration of specific transporter constructs subsequent to uptake (internalization) of these peptides into U937 cells were determined.

Hela cells = experiment: Internalization of r3-L-TAT-derived transporters in Hela cells; format: cell-based; details: 2, 6 or 24 hours; 0, 500 nM, 1 mM or 10 mM
Text: The time dependant internalization (uptake) of FITC-labeled TAT derived transporter constructs into cells of the HL-60 cell line was furthermore carried out with materials and methods as described above using sequences of the 96-FITC-labeled D-TAT derivative transporters. These sequences are listed below.
• In the above table D amino acids are indicated by a small “d” prior to the respective amino acid residue (e.g. dR=D-Arg). • For a few sequences synthesis failed in the first approach unfortunately due to technical reasons. […] Hela cells were incubated 24 hours in 96 well plate with […] of the r3-L-TAT-derived transporters. Alternatively, human lymphoma cells are used. The cells were then washed twice with an acidic buffer (0.2M Glycin, 0.15M NaCl, pH 3.0) and twice with PBS. Cells were broken by the addition of RIPA lysis buffer. […] Briefly, Hela cells were incubated 2, 6 or 24 hours in 24 well plate with increasing dose of the r3-L-TAT-derivative transporters (0, 500 nM, 1 mM or 10 mM). The cells were then washed twice with an acidic buffer (0.2M Glycin, 0.15M NaCl, pH 3.0) and twice with PBS. Cells were broken by the addition of RIPA lysis buffer.

U937 lymphoma cells = experiment: Uptake (internalization) of FITC-labeled TAT derived transporter constructs in U937 cells, fluorescence plate reader; format: cell-based
Protocol: Cells were plated into poly-DL-lysine coated dishes at a concentration of 1×10^6 cells/ml. Plates were then incubated for 24 h at 37° C., 5% CO2, and 100% relative humidity prior to the addition of a known concentration of peptide. After peptide addition, the cells were incubated 30 min, 1, 6 or 24 h at 37° C., 5% CO2, and 100% relative humidity. Cells were then washed twice with an acidic buffer (Glycin 0.2 M, NaCl 0.15 M, pH 3.0) in order to remove the cell-surface adsorbed peptide (see Kameyama et al., (2007), Biopolymers, 88, 98-107). […] The cell wash using an acidic buffer was thus employed to remove the cell-surface adsorbed peptides. […] Cells were broken by the addition of the RIPA lysis buffer. The relative amount of internalized peptide was then determined by fluorescence after background substraction and protein content normalization. • The steps are thus: 1. […] Analysis of peptide internalization with a fluorescence plate reader • f) Cell Culture and Peptide Treatment • (1) The 6 well culture plates are coated with 3 ml of Poly-D-Lys (Sigma P9011; 25 μg/ml in PBS), the 24 well plates with 600 μl and the 96 well plates with 125 μl and incubated for 4 h at 37° C., CO2 5% and 100% relative humidity. • (2) After 4 hours the dishes were washed twice with 3.5 ml PBS, 700 μl or 150 μl PBS for the 6, 24 or 96 well plates, respectively. • (3) The cells were plated into the dishes in 2.4 ml medium (RPMI) at plating densities of 1′000′000 cells/ml for suspension cells. After inoculation, the plates were incubated at 37° C., 5% CO2 and 100% relative humidity for 24 hours prior to the addition of the peptide. Adherent cells should be at a density of 90-95% the day of treatment and were plated in DMEM :
• (4) The cells were treated with the desired concentration of FITC labeled peptide (stock solution at a concentration of 10 mM in H2O). • (5) Following peptide addition, the cells were incubated 0 to 24 hours (e.g. 30 min, 1, 6 or 24 hours) at 37° C., CO2 5% and 100% relative humidity. • Acidic Wash and Cellular Extracts: • (6) The extracts were cooled on ice. • Suspension cells (or cells, which don attach well to the dish): • Transfer the cells in ? […] To recover the maximum of cells, wash the dish with 1 ml of PBS. • Harvest the cells 2 min at 2400 rpm max. • Suspend the cells in 1 ml cold PBS. • Transfer the cells into a coated “Eppendorf tube” (coated with 1 ml of poly D-Lys for 4 hours and washed twice with 1 ml PBS). • Wash three times with 1 ml of cold acidic wash buffer and centrifuge 2 min at 2400 rpm max. Beware of the spreading of the cells in the “eppendorf”. • Wash twice with 1 ml cold PBS to neutralize. • Add 50 μl of lysis RIPA Buffer. • Incubate 30 min-1 h on ice with agitation. • Adherent Cells: • Wash three times with 3 ml, 1 ml or 200 μl (for 6, 24 or 96 well plates, respectively) of cold acidic wash buffer. Beware of the cells who detach from the dish. • Wash twice with 1 ml cold PBS (for 6, 24 or 96 well plates, respectively) to neutralize. • Add 50 μl of lysis RIPA buffer. • Incubate 30 min-1 h on ice with agitation. • Scrap the cells with a cold scrapper. The 24 and 96 well plates were directly centrifuged at 4000 rpm at 4° for 15 min to remove the cellular debris. Then the supernatants (100 or 50 ml respectively for the 24 or 96 well plates) were directly transferred in a dark 96 well plated.

[1] = test system: dissociated cortical primary neurons; experiment: Confocal microscopy of FITC-labeled TAT derivative transporters in cortical primary neurons; format: cell-based, rat; details: 500 nM, 24 hours
Protocol: 8.4 Internalization Experiments and Analysis • The time dependant internalization (uptake) of FITC-labeled TAT derived transporter constructs into cells of the HL-60 cell line was carried out with materials and methods as described above. • Briefly, HL-60 cells were incubated 30 min, 1, 6 or 24 hours with 10 μM of the TAT-derivative transporters. The cells were then washed twice with an acidic buffer (0.2 M Glycin, 0.15 M NaCl, pH 3.0) and twice with PBS. Cells were broken by the addition of RIPA lysis buffer. The relative amount of internalized peptide was then determined by reading the fluorescence intensity (Fusion Alpha plate reader; PerkinElmer) of each extract followed by background substraction and protein content normalization. […] The dissociated cortical primary neurons from P2 Sprague Dawley rats were cultured 12 days in neurobasal medium before exposure 24 hours to 500 nM of the FITC-labeled • TAT derivative transporters. The cells were washed five times with PBS on ice and then mounted in fluorsave mounting medium without prior fixation. Acquisitions were performed on LSM510 metaconfocal microscope (Zeiss). Images were processed with LSM510 software and mounted using Adobe photoshop. Visualization by confocal microscopy of labeling with 500 nM FITC-transporters (A: green). Nuclei were stained by Hoechst (B: blue).

Monocytes (CD14) = experiment: Flow cytometry of FITC-transporter content in primary human white blood cells: monocytes; format: cell-based; details: 1 uM, 30 min
Text: (§1) Primary human white blood cells (WBC) were obtained from whole blood after red blood cell lysis. […] Cells containing D-TAT-FITC and r3-L-TAT-FITC were finally analysed by flow cytometry to measure their respective transporter content.

[2] = Tissue distribution of C14 radiolabeled D-TAT-tagged peptides; format: in vivo, mouse; details: 1 mg/kg s.c., i.v., i.p.; 72 hours after injection
Protocol: Mice were treated via three different routes of administration (s.c., i.v., i.p.) with radiolabeled peptides with C^14 (1 mg/kg). Animals were sacrificed 72 hours after injection and processed for immunoradiography. […] This illustrates that the transporter D-TAT is responsible for the tissue distribution.

Lymphocytes T (CD3) = experiment: Flow cytometry of FITC-transporter content in primary human white blood cells: lymphocytes T; format: cell-based; details: 1 uM, 30 min
Text: as §1

[3] = test system: HepG2 hepatocarcinoma, HCT-116 tumoral colon; experiment: Uptake of FITC-labeled TAT derived transporter constructs in HepG2 and HCT-116; format: cell-based, human; details: 10 μM, 24 h
Neutrophils (CD15) = experiment: Flow cytometry of FITC-transporter content in primary human white blood cells: neutrophils; format: cell-based; details: 1 uM, 30 min
Text: as §1

Lymphocytes B (CD19) = experiment: Flow cytometry of FITC-transporter content in primary human white blood cells: lymphocytes B; format: cell-based; details: 1 uM, 30 min
Text: as §1

| Substance | accumulation in the cell (intracellular concentration) (U937 cells; 10 μM in medium) | intracellular concentration of transporter construct subsequent to uptake (U937 cells; 2 h) | intracellular concentration of transporter construct subsequent to uptake (U937 cells; 4 h) | intracellular concentration of transporter construct subsequent to uptake (U937 cells; 6 h) | intracellular concentration of transporter construct subsequent to uptake (U937 cells; 24 h) | transporter activity and kinetics of transport activity (Hela cells) | uptake (internalization) (U937 lymphoma cells; 10 μM, U937, Lymphoma, 24 h) | HSPG dependency of uptake (internalization) (U937 lymphoma cells; 500 nm over 24 hours in U937 cells) | internalization seen by confocal microscopy [1] | binding to cell population (Monocytes (CD14)) | tissue distribution (accumulation) [2] | binding to cell population (Lymphocytes T (CD3)) | binding to cell population (Lymphocytes T (CD3); listed as dTAT) | uptake (internalization) [3] | binding to cell population (Neutrophils (CD15)) | binding to cell population (Lymphocytes B (CD19)) |
| --- | --- | --- | --- | --- | --- | --- | --- | --- | --- | --- | --- | --- | --- | --- | --- | --- |
| rYKRrQRRr ([dR]YKR[dR]QRR[dR]) [TAT(s2-91)] | significantly higher than the concentration of the transporter construct in the medium | 3.16 | 4.27 | 4.68 | 50 | highest transporter activity |  |  |  |  |  |  |  |  |  |  |
| rrrqrrkkr [D-TAT] |  | 2.00 | 2.24 | 3.55 | 17.3 |  | most efficient | HSPG-dependent | internalized into the cytoplasm of the non stressed neurons | binds to monocytes, neutrophils and lymphocyte T cells | in the liver, spleen, and bone marrow predominantly | seeming to bind more efficiently to lymphocyte T than the r3-L-TAT | binds to monocytes, neutrophils and lymphocyte T cells | most efficient | binds to monocytes, neutrophils and lymphocyte T cells | less efficiently to lymphocyte B cells |
